Results on 27 molecules are retold here after patent US10961238B2, “Modulators of hedgehog (Hh) signaling pathway” (E-THERAPEUTICS PLC, priority 2016, dated 2021).

In one assay the test system is C3H10T1/2 cells. Nature of the assay: C3H assay: differentiation of C3H10T1/2 cells by mSHH, measurement of alkaline phosphatase. It is filed as cell-based, mouse. Conditions: Mus musculus, C3H 10T1/2; C3H10T1/2 cells stimulated with mSHH for 72 hours; alkaline phosphatase activity; read-out: IC50 Ranges.
A further assay deals with T1, SMO (Homo sapiens, UniProt Q99835).
T1 construct: expressed in transfected cells; host or cells: HEK293
T1 sequence (Q99835 28-787): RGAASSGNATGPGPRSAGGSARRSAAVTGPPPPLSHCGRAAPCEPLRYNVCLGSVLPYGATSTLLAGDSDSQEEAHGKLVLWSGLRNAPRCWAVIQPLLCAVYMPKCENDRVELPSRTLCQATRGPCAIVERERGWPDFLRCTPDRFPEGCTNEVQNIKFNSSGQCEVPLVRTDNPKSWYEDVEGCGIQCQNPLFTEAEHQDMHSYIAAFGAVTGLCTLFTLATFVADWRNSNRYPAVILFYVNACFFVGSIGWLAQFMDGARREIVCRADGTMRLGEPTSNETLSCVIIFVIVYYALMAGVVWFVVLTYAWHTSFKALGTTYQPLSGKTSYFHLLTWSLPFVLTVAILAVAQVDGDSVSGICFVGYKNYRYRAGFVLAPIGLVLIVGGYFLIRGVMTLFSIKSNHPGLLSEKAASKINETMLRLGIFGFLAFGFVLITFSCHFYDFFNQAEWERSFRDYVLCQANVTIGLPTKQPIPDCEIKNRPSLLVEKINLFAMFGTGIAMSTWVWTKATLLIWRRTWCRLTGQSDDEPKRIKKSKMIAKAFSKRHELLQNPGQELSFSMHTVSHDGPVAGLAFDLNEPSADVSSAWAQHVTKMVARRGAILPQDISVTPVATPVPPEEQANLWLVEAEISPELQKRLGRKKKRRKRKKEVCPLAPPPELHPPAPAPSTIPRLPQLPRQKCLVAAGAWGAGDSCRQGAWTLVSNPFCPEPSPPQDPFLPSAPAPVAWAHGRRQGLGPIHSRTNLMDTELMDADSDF
In words: Smoothened (SMO) binding fluorescence polarisation assay (BODIPY-cyclopamine competition). The settings on record: SMO binding FP assay versus C3H10T1/2 cellular assay. The procedure:
Standard Protocol for Smoothened (SMO) Binding Fluorescence Polarisation Assay.
The assay measures the ability of the test compounds to compete with a fluorescently-labelled version of the known ligand, cyclopamine, for binding to SMO. The fluorescent tag used is BODIPY (boron dipyrromethene).
An aliquot of a membrane preparation from a SMO-over-expressing HEK293 cell line is diluted to protein concentration of 0.117 mg/ml in assay buffer (25 mM HEPES, 2 mM EDTA, 0.05% γ-globulin, 0.01% pluronic acid pH7.4, plus protease Inhibitor cocktail). 8.5 μl of the membrane suspension is added to each well of a black, low volume 384 well microtitre plate.
Test compounds are added in a seven point dilution range to the wells containing the membrane preparation. The final DMSO solvent concentration in the wells is maintained at 0.3%. 6.5 μl of a 6.9 nM BODIPY-cyclopamine solution is added to each of the wells (final assay concentration 3 nM).
The plate is sealed and stored in the dark at room temperature for 24 hours prior to measurement of the fluorescence polarisation signal on a Perkin Elmer Envision multi-label reader.
Table 4 below details the ratio of SMO binding compared to the potency in the C3H10T1/2 cellular assay. The small ratio between SMO binding and potency for vismodegib is considered to be reflective of the fact vismodegib acts mainly through inhibition of the SMO protein. The larger ratios for the compound of the invention are considered to be reflective of alternate actions outside of direct SMO inhibition.
(In general: In fluorescence polarisation assays a small probe gives low polarisation when free and higher when bound to something large.)

The structures appear in SMILES notation. A value given as a limit tells only on which side of the number the result lay.

As usually defined, the IC50 is the point on the concentration scale where inhibition reaches its midpoint. As for `CN(C)c1ccc(C2CCN(S(=O)(=O)C3CCN(C(=O)OC(C)(C)C)CC3)CC2)cc1` [Compound 112], in the assay with C3H10T1/2 cells, the IC50 was in the range of 100 to 1000 nM. Also, the “Ratio of potency in SMO binding assay to potency in C3H10T1/2 cellular assay” value (shortened to “Ratio of potency in SMO binding assay”) on SMO was 42.

As for `O=C(OCC1CCCO1)N1CC(S(=O)(=O)N2CCC(c3c[nH]c4ncccc34)CC2)C1` (stereo not shown) [Compound 67, (oxolan-2-yl)methyl 3-[4-(1H-pyrrolo [2,3-b]pyridin-3-yl)piperidin-1-yl]sulfonylaze-tidine-1-carboxylate], the concentration for half-maximal inhibition (IC50) with C3H10T1/2 cells lay within 10 to 100 nM. Also, the “Ratio of potency in SMO binding assay” value at SMO is recorded as 45.

Consider `O=C(CC(O)(C(F)(F)F)C(F)(F)F)N1CC(S(=O)(=O)N2CCC(c3coc4cccnc34)CC2)C1` [Compound 334, 4,4,4-trifluoro-1-[3-(4-furo[3,2-b]pyridin-3-ylpiperidin-1-yl)sulfonylaze-tidin-1-yl]-3-hydroxy-3-(trifluoromethyl) butan-1-one], for which the IC50 in the assay on C3H10T1/2 cells fell in the range of 10 to 100 nM. The “Ratio of potency in SMO binding assay” value at SMO came out at 2.6.

Turning to `COC(=O)[C@H]1C[C@H](S(=O)(=O)N2CCC(c3c[nH]c4ncccc34)CC2)C1` [Compound 274, methyl trans-3-[4-(1H-pyrrolo[2,3-b]pyridin-3-yl)piperidin-1-yl]sulfonylcycl obutane-1-carboxylate], the IC50 in the assay on C3H10T1/2 cells was in the range of 100 to 1000 nM. Also, the “Ratio of potency in SMO binding assay” value on SMO is on record as above 10.

In the case of `O=C([C@H]1C[C@H](S(=O)(=O)N2CCC(c3c[nH]c4ncccc34)CC2)C1)N1CCOCC1` [Compound 308, trans-morpholin-4-yl-[3-[4-(1H-pyrrolo [2,3-b]pyridin-3-yl)piperidin-1-yl]sulfonyl-cyclobutyl] methanone], the IC50 with C3H10T1/2 cells was in the range of 100 to 1000 nM. For the same molecule, the “Ratio of potency in SMO binding assay” value on SMO was 4.8.

On to `CC(C)(O)CC(=O)N1CC(S(=O)(=O)N2CCC(c3c[nH]c4ncccc34)CC2)C1` [Compound 397, 3-hydroxy-3-methyl-1-[3-[4-(1H-pyrrolo[2,3-b]pyridin-3-yl)piperidin-1-yl]sulfonylaze-tidin-1-yl]butan-1-one], for which the half-maximal inhibitory concentration (IC50) in the assay on C3H10T1/2 cells was in the range of 100 to 1000 nM. Also, the “Ratio of potency in SMO binding assay” value on SMO is on record as 3.6.

Turning to `O=C(CC(O)(C(F)(F)F)C(F)(F)F)N1CC(S(=O)(=O)N2CCC(c3c[nH]c4ncccc34)CC2)C1` [Compound 333, 4,4,4-trifluoro-3-hydroxy-1-[3-[[4-(1H-pyrrolo[2,3-b]pyridin-3-yl)-1-piperidyl]sulfonyl]azetidin-1-yl]-3-(trifluoromethyl)butan-1-one], the 50% inhibitory concentration (IC50) with C3H10T1/2 cells lay in the range of 10 to 100 nM. Moreover, the “Ratio of potency in SMO binding assay” value at SMO turned out to be 2.5.

`Cn1cc(-c2cnc3[nH]cc(C4CCN(S(=O)(=O)C5CN(C(=O)OC(C)(C)C)C5)CC4)c3c2)cn1` [Compound 122, tert-butyl 3-[4-[5-(1-methylpyrazol-4-yl)-1H-pyrrolo [2,3-b]pyridin-3-yl]piperidin-1-yl]sulfonylaze-tidine-1-carboxylate]: the IC50 in the assay on C3H10T1/2 cells is 100 to 1000 nM. Also, on SMO, the “Ratio of potency in SMO binding assay” value was above 55.

Regarding `COc1cnc2[nH]cc(C3CCN(S(=O)(=O)C4CCN(C(=O)OC(C)(C)C)CC4)CC3)c2c1` [Compound 115, tert-butyl 4-[4-(5-methoxy-1H-pyrrolo[2,3-b]pyridin-3-yl)piperidin-1-yl]sulfonylpiper-idine-1-carboxylate], the half-maximal inhibitory concentration (IC50) in the assay with C3H10T1/2 cells was 100 to 1000 nM. Also, the “Ratio of potency in SMO binding assay” value at SMO is 20.

Turning to `CC(C)(C)C(=O)CN1CC(S(=O)(=O)N2CCC(c3c[nH]c4ncccc34)CC2)C1` [Compound 314, 3,3-dimethyl-1-[3-[4-(1H-pyrrolo[2,3-b]pyridin-3-yl)piperidin-1-yl]sulfonylaze-tidin-1-yl]butan-2-one], the 50% inhibitory concentration (IC50) with C3H10T1/2 cells was 10 to 100 nM. On SMO, the “Ratio of potency in SMO binding assay” value is recorded as 6.7.

As to `N#Cc1ccnc(N2CC(S(=O)(=O)N3CCC(c4ccncc4)CC3)C2)c1` [Compound 258, 2-[3-(4-pyridin-4-ylpiperidin-1-yl)sulfonylaze-tidin-1-yl]pyridine-4-carbonitrile], the IC50 in the assay on C3H10T1/2 cells was in the range of 1000 to 10000 nM.

In the case of `C[C@H]1COC[C@H](C)N1C(=O)N1CC(S(=O)(=O)N2CCC(c3c[nH]c4ncccc34)CC2)C1` [Compound 165, [(3S,5S)-3,5-dimethylmorpholin-4-yl]-[3-[4-(1H-pyrrolo[2,3-b]pyridin-3-yl)piperidin-1-yl]sulfonylaze-tidin-1-yl]methanone], the IC50 in the assay with C3H10T1/2 cells fell in the range of 100 to 1000 nM.

With `O=S(=O)(C1CN(c2cccnc2)C1)N1CCC(c2c[nH]c3ncccc23)CC1` [Compound 270, 3-[1-(1-pyridin-3-ylazetidin-3-yl)-sulfonylpiper-idin-4-yl]-1H-pyrrolo[2,3-b]pyridine], the half-inhibitory concentration (IC50) in the assay with C3H10T1/2 cells lay within 100 to 1000 nM.

Regarding `O=C(CC1CCOCC1)N1CC(S(=O)(=O)N2CCC(c3coc4cccnc34)CC2)C1` [Compound 377, 1-[3-[(4-furo[3,2-b]pyridin-3-yl-1-piperidyl)sulfonyl]azetidin-1-yl]-2-tetrahydropyran-4-yl-ethanone], in the assay on C3H10T1/2 cells, the IC50 was in the range of 10 to 100 nM.

`O=C(NCc1cncs1)N1CC(S(=O)(=O)N2CCC(c3c[nH]c4ncccc34)CC2)C1` [Compound 80, 3-[4-(1H-pyrrolo[2,3-b]pyridin-3-yl)piperidin-1-yl]sulfonyl-N-(1,3-thiazol-5-ylmethyl)azetidine-1-carboxamide]: the IC50 in the assay on C3H10T1/2 cells is 100 to 1000 nM.

In the case of `CC[C@@H](C)OC(=O)N1CC(S(=O)(=O)N2CCC(c3ccncc3)CC2)C1` [Compound 263, [(2R)-butan-2-yl]3-(4-pyridin-4-ylpiperidin-1-yl)sulfonylaze-tidine-1-carboxylate], in the assay with C3H10T1/2 cells, the IC50 is 100 to 1000 nM.

Regarding `CC1(C)COCN1C(=O)N1CC(S(=O)(=O)N2CCC(c3ccc(Cl)cc3)CC2)C1` [Compound 411, [3-[4-(4-chlorophenyl)piperidin-1-yl]-sulfonylaze-tidin-1-yl]-(4,4-dimethyl-1,3-oxazolidin-3-yl)-methanone], the IC50 with C3H10T1/2 cells lay within 10 to 100 nM.

`O=C(OCc1ccco1)N1CC(S(=O)(=O)N2CCC(c3c[nH]c4ncccc34)CC2)C1` [Compound 83, furan-2-ylmethyl 3-[4-(1H-pyrrolo[2,3-b]pyridin-3-yl)piperidin-1-yl]sulfonylaze-tidine-1-carboxylate]: the 50% inhibitory concentration (IC50) in the assay on C3H10T1/2 cells was 1000 to 10000 nM.

With `O=C(OC1CCOCC1)N1CC(S(=O)(=O)N2CCC(c3coc4cccnc34)CC2)C1` [Compound 136, oxan-4-yl 3-(4-furo[3,2-b]pyridin-3-ylpiperidin-1-yl)sulfonylaze-tidine-1-carboxylate], the IC50 in the assay with C3H10T1/2 cells fell in the range of 10 to 100 nM.

As to `Cc1cccc(C)c1NC(=O)N1CC(S(=O)(=O)N2CCC(c3coc4cccnc34)CC2)C1` [Compound 382, N-(2,6-dimethylphenyl)-3-(4-furo[3,2-b]pyridin-3-ylpiperidin-1-yl)sulfonylaze-tidine-1-carboxamide], the IC50 in the assay with C3H10T1/2 cells is 10 to 100 nM.

For the molecule `CC(C)(C)OC(=O)N1CC(S(=O)(=O)N2CCN(c3nsc4ccccc34)CC2)C1` [Compound 225, tert-butyl 3-[4-(1,H-benzothiazol-3-yl)piperazin-1-yl]sulfonylaze-tidine-1-carboxylate], in the assay with C3H10T1/2 cells, the IC50 lay within 1000 to 10000 nM.

Take `Cc1noc(C)c1NC(=O)N1CC(S(=O)(=O)N2CCC(c3ccncc3)CC2)C1` [Compound 262, N-(3,5-dimethyl-1,2-oxazol-4-yl)-3-(4-pyridin-4-ylpiperidin-1-yl)sulfonylaze-tidine-1-carboxamide]: in the assay with C3H10T1/2 cells, the concentration for half-maximal inhibition (IC50) was in the range of 100 to 1000 nM.

On to `CN1CCN(CCCOC(=O)N2CC(S(=O)(=O)N3CCC(c4c[nH]c5ncccc45)CC3)C2)CC1` [Compound 53, 3-(4-methylpiperazin-1-yl)propyl 3-[4-(1H-pyrrolo [2,3-b]pyridin-3-yl)piperidin-1-yl]sulfonylaze-tidine-1-carboxylate], for which the concentration for half-maximal inhibition (IC50) in the assay on C3H10T1/2 cells is 1000 to 10000 nM.

Regarding `COc1ccc(C2CCN(S(=O)(=O)C3CN(C(=O)OC(C)(C)C)C3)CC2)cn1` [Compound 48, tert-butyl 3-[4-(6-methoxypyridin-3-yl)piperidin-1-yl]sulfonylaze-tidine-1-carboxylate], the IC50 in the assay on C3H10T1/2 cells fell in the range of 100 to 1000 nM.

On to `COC(=O)c1cnc2[nH]cc(C3CCN(S(=O)(=O)C4CN(C(=O)OC(C)(C)C)C4)CC3)c2c1` [Compound 15, methyl 3-[1-[1-[(2-methylpropan-2-yl)oxycarbonyl]azetidin-3-yl]sulfonylpiper-idin-4-yl]-1H-pyrrolo[2,3-b]pyridine-5-carboxylate], for which the concentration for half-maximal inhibition (IC50) with C3H10T1/2 cells lay in the range of 1000 to 10000 nM.

With `C[C@@H](NC(=O)N1CC(S(=O)(=O)N2CCC(c3c[nH]c4ncccc34)CC2)C1)C(F)(F)F` [Compound 332, 3-[4-(1H-pyrrolo [2,3-b]pyridin-3-yl)piperidin-1-yl]sulfonyl-N-[(2R)-1,1,1-trifluoropropan-2-yl]azetidine-1-carboxamide], the IC50 in the assay on C3H10T1/2 cells was in the range of 10 to 100 nM.

Turning to `O=S(=O)(C1CN(c2ncccc2C(F)(F)F)C1)N1CCC(c2c[nH]c3ncccc23)CC1` [Compound 186, 3-[1-[1-[3-(trifluoromethyl)pyridin-2-yl]azetidin-3-yl]sulfonylpiper-idin-4-yl]-1H-pyrrolo [2,3-b]pyridine], in the assay with C3H10T1/2 cells, the IC50 lay in the range of 100 to 1000 nM.
